In patent publication US12410207B2, “Galactoside inhibitor of galectins” (GALECTO BIOTECH AB, priority 2019, dated 2025):
One block for each compound: values may come before it.

Columns and labels:
Galectin-1 = Galectin-1 (Homo sapiens, UniProt P09382); assay: Fluorescence anisotropy assay, inhibition of galectin / fluorescein tagged saccharide probe interaction; conditions: compound as inhibitor of probe binding
Experimental: (§1) The affinity of Example 1-45 for galectins were determined by a fluorescence anisotropy assay where the compound was used as an inhibitor of the interaction between galectin and a fluorescein tagged saccharide probe as described Sörme, P., Kahl-Knutsson, B., Huflejt, M., Nilsson, U. J., and Leffler H. (2004) Fluorescence polarization as an analytical tool to evaluate galectin-ligand interactions. Anal. Biochem. 334: 36-47, (Sorme et al., 2004) and Monovalent interactions of Galectin-1 By Salomonsson, Emma; Larumbe, Amaia; Tejler, Johan; Tullberg, Erik; Rydberg, Hanna; Sundin, Anders; Khabut, Areej; Frejd, Torbjorn; Lobsanov, Yuri D.; Rini, James M.; et al, From Biochemistry (2010), 49(44), 9518-9532, (Salomonsson et al., 2010).

Galectin-3 = Galectin-3 (Homo sapiens, UniProt P17931); assay: as above; conditions: compound as inhibitor of probe binding
Experimental: as §1

[1] = In vivo mouse pharmacokinetic experiment (plasma and brain)
Experimental: FIG. 1 compares the mean plasma levels after IV and PO administration
FIG. 2 compares the mean brain tissue concertation after IV and PO administration
The ratio between exposure of example 35 in brain compared to plasma is determined to AUCbrain/AUCplasma=0.19 after oral administration. (AUC=area under the curve)

MDR1 = assay: MDCK-MDR1 in vitro cell model of passage over Blood Brain Barrier; type: in vitro ADME; conditions: dog
MDCK-MDR1 = assay: as above; type: in vitro ADME; conditions: MDCK-MDR1, result in words
galectins = conditions: cited from earlier work

Chain of Galectin-1 (P09382 whole entry, species assumed): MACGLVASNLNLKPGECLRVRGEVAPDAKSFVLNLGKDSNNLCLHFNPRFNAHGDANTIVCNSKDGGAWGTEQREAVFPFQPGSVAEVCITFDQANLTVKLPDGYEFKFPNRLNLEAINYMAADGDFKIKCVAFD
Chain of Galectin-3 (P17931 whole entry, species assumed): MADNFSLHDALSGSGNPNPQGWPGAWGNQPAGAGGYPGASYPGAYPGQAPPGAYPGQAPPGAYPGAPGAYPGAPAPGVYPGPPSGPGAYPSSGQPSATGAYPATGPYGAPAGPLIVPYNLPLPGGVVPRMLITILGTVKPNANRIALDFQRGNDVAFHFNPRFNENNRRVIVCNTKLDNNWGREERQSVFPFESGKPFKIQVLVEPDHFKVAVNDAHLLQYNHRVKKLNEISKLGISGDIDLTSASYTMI

Kd (Galectin-1): 3.1 µM
Kd (Galectin-3): 0.014 µM
systemic bioavailability ([1]; IV 1 mg/kg and PO 10 mg/kg, FIG. 1): excellent systemic bioavailability
exposure in brain ([1]; IV 1 mg/kg and PO 10 mg/kg, FIG. 2): good exposure in brain
Kp ([1]; brain (relative to plasma), after oral administration (PO 10 mg/kg), read-out: AUCbrain/AUCplasma): 0.19
Papp (MDR1; MDCK-MDR1, first column, headed A > B): 23 ×10⁻⁶ cm/s
Papp (MDR1; MDCK-MDR1, second column, also headed A > B): 35 ×10⁻⁶ cm/s
efflux and uptake in in vitro cell model of BBB passage (MDCK-MDR1): low or no efflux and high uptake
Structure (SMILES): COC1C(n2cc(-c3cc(F)c(F)c(F)c3)cn2)[C@@H](O)C(CO)O[C@@H]1Sc1cc(Cl)cnc1C#N (stereo partly drawn) [Example 35, 5-Chloro-2-cyanopyridin-3-yl 3-deoxy-3-[4-(3,4,5-trifluorophenyl)-1H-1,2-pyrazol-1-yl]-2-O-methyl-1-thio-α-D-galactopyranoside]

Structure (SMILES): OC[C@H]1O[C@@H](O[C@H]2[C@H](O)[C@@H](O)C(O)O[C@@H]2CO)[C@H](O)[C@@H](O)[C@H]1O (stereo partly shown) [lactose]
Kd (galectins; reviewed by Leffler 2001, Leffler et al. 2004, read-out: Kd, all galectins): 500 to 1000 µM

Structure (SMILES): O=C[C@H](O)[C@@H](O)[C@@H](O)[C@H](O)CO [D-galactose]
affinity, times lower than lactose (galectins; relative to lactose): 50-100 times
